Consider 13 compounds from ChEMBL document CHEMBL1201862, “PubChem BioAssay data set” (2004).

Among the test systems are COLO 205; HCT-15; HOP-62; IGROV-1; MCF7; MDA-MB-231; MDA-N; NCI-H23; NCI-H460; OVCAR-4; PC-3; SF-295; SNB-75; TK-10; U-251; UACC-62; HCT-116; NCI-H522; SN12C.
Holding throughout (assay): NCI anticancer screen, dose series, 48 h

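These data come from cells grown in 96-well plates and exposed to compound for 48 hours at five concentrations. GI50: concentration for 50% inhibition of growth.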 Calls of active or inactive are those of the source. Rule as the data show it: active = GI50 up to about 1.1 µM and inactive = higher.

As for `C[C@]12CC[C@@H]3c4ccc(O)cc4CC[C@H]3[C@@H]1C/C(=C\c1ccncc1)C2=O`, the GI50 in the experiment with COLO 205 was 29.7 µM (inactive); with HCT-15 it was 7.29 µM; in the experiment on HOP-62 it was 20.3 µM (inactive); in the experiment with IGROV-1, 15.1 µM (inactive); with MCF7, 12 µM (inactive); with MDA-MB-231, 41.4 µM (inactive). In addition, the GI50 is 11.3 µM (inactive) with MDA-N; 29 µM (inactive) in the experiment on NCI-H23; 9.4 µM (inactive) with NCI-H460; 15.6 µM (inactive) in the experiment on OVCAR-4; 11.6 µM (inactive) with PC-3; 24.9 µM (inactive) in the experiment on SF-295. Also, the GI50 in the experiment with SNB-75 is > 100 µM (inactive); in the experiment on TK-10, 29.2 µM (inactive); in the experiment with U-251, 16.1 µM (inactive); in the experiment on UACC-62 it was 10.3 µM (inactive).

For `O=C(NC(Cc1ccc(I)cc1)C(=O)O)c1ccc(I)cc1` (stereo not drawn), the GI50 in the experiment on COLO 205 is > 100 µM (inactive); with HCT-116 it was 54.1 µM (inactive); with HCT-15 it was 99.1 µM; with HOP-62 it was 72.3 µM (inactive); in the experiment with IGROV-1 it was > 24.4 µM (inactive); with MCF7, > 50.4 µM (inactive). The GI50 was > 80.2 µM (inactive) in the experiment on NCI-H23; 57.9 µM (inactive) in the experiment on NCI-H460; 38.8 µM (inactive) in the experiment with NCI-H522; 51.4 µM (inactive) with OVCAR-4; > 100 µM (inactive) with SF-295; > 100 µM (inactive) in the experiment on SN12C. Moreover, the GI50 is 21.2 µM (inactive) with SNB-75, 62.1 µM (inactive) in the experiment with U-251 and 29.6 µM (inactive) in the experiment with UACC-62.

With `COc1ccccc1C1C(Cl)C(=O)N1n1cnc2ccccc2c1=O` (stereo not drawn), the GI50 in the experiment on COLO 205 is > 100 µM (inactive); in the experiment on HCT-116, > 100 µM (inactive); in the experiment on HCT-15 it was over 100 µM; in the experiment with HOP-62 it was > 100 µM (inactive); in the experiment with IGROV-1 it was > 100 µM (inactive); in the experiment on NCI-H23, > 100 µM (inactive). Besides, the GI50 is > 100 µM (inactive) with NCI-H460; > 100 µM (inactive) with NCI-H522; > 100 µM (inactive) in the experiment with OVCAR-4; > 100 µM (inactive) in the experiment on SF-295; > 100 µM (inactive) in the experiment with SN12C; 40.6 µM (inactive) in the experiment with SNB-75. Further, the GI50 is > 100 µM (inactive) with TK-10, 48.3 µM (inactive) in the experiment with U-251 and > 100 µM (inactive) with UACC-62.

With `O=c1cc(-c2ccncc2)[nH]c2cc3c(cc12)OCO3`, the GI50 with COLO 205 is > 100 µM (inactive); in the experiment with HCT-116, 97.3 µM (inactive); in the experiment on HCT-15 it was over 100 µM; with HOP-62 it was > 100 µM (inactive); in the experiment with IGROV-1, > 100 µM (inactive); in the experiment with MCF7 it was > 100 µM (inactive). Further, the GI50 in the experiment on MDA-MB-231, in the experiment with MDA-N, with NCI-H23, with NCI-H460, in the experiment on OVCAR-4 and in the experiment on SF-295 was > 100 µM (inactive) throughout. Further, the GI50 in the experiment with SN12C is > 100 µM (inactive); in the experiment on SNB-75, 49.7 µM (inactive); in the experiment on TK-10, > 100 µM (inactive); in the experiment with U-251, > 100 µM (inactive); in the experiment with UACC-62, > 100 µM (inactive).

Turning to `Fc1ccccc1C1CC(C(c2ccccc2)c2ccccc2)=Nc2ccccc2S1` (stereo not drawn), the GI50 in the experiment with COLO 205 is 14.8 µM (inactive); with HCT-15 it was 5.78 µM; with HOP-62, 12.6 µM (inactive); in the experiment on IGROV-1, 6.95 µM (inactive); in the experiment with NCI-H23, 5.89 µM (inactive); in the experiment with NCI-H460, 4.89 µM (inactive). Moreover, the GI50 in the experiment on NCI-H522 is 6.79 µM (inactive); in the experiment on OVCAR-4, 10.9 µM (inactive); in the experiment with SF-295, 9.48 µM (inactive); with SN12C, 10.2 µM (inactive); with SNB-75, 1.13 µM (inactive); with TK-10, 10.7 µM (inactive). The GI50 in the experiment on U-251 was 12.6 µM (inactive); with UACC-62, 3.27 µM (inactive).

As to `COc1cc(C2C(C(=O)O)=C(COC(C)=O)Oc3cc4c(cc32)OCO4)cc(OC)c1OC` (stereo not drawn), the GI50 in the experiment with COLO 205 is > 100 µM (inactive); with HCT-116 it was > 100 µM (inactive); with HCT-15, over 100 µM; with HOP-62 it was > 100 µM (inactive); in the experiment with IGROV-1 it was > 100 µM (inactive); in the experiment on NCI-H23, > 100 µM (inactive). For the same compound, the GI50 with NCI-H460 was > 100 µM (inactive); with OVCAR-4 it was > 100 µM (inactive); in the experiment with SF-295, > 100 µM (inactive); in the experiment with SN12C, > 100 µM (inactive); in the experiment on SNB-75, 41 µM (inactive); in the experiment on TK-10, > 100 µM (inactive). In addition, the GI50 in the experiment on U-251 and with UACC-62 was > 100 µM (inactive) in each case.

For the compound `c1c2c(cc(-n3nnc4c3CCCCCC4)c1-n1nnc3c1CCCCCC3)CCCCCC2`, the GI50 was 5.7 µM (inactive) with HCT-116; 5.19 µM in the experiment on HCT-15; 17.8 µM (inactive) with HOP-62; 18.3 µM (inactive) in the experiment with IGROV-1; > 10 µM (inactive) in the experiment on NCI-H23; 6.3 µM (inactive) in the experiment with NCI-H460. In addition, the GI50 was 0.485 µM (active) with NCI-H522; 12 µM (inactive) in the experiment with SF-295; 10.8 µM (inactive) in the experiment on SN12C; 12.7 µM (inactive) with SNB-75; 12.6 µM (inactive) in the experiment with TK-10; 10.1 µM (inactive) in the experiment on U-251. Further, the GI50 with UACC-62 was 12.4 µM (inactive).

Turning to `COc1ccccc1Cc1nc(-c2ccccc2)nn(C2OC(COC(C)=O)C(OC(C)=O)C(OC(C)=O)C2OC(C)=O)c1=S` (stereo not drawn), the GI50 is > 40.4 µM (inactive) with COLO 205; 10.1 µM (inactive) with HCT-116; 21.5 µM with HCT-15; 10.1 µM (inactive) in the experiment with HOP-62; 31.1 µM (inactive) in the experiment on IGROV-1; 6.84 µM (inactive) with MCF7. Moreover, the GI50 with NCI-H23 was 11.2 µM (inactive); in the experiment on NCI-H460, > 43.9 µM (inactive); in the experiment on NCI-H522, 6.5 µM (inactive); in the experiment with OVCAR-4, 3.31 µM (inactive); with SF-295 it was 8.15 µM (inactive); in the experiment with SN12C it was 9.35 µM (inactive). Moreover, the GI50 was 3.08 µM (inactive) with SNB-75, 13.2 µM (inactive) in the experiment with U-251 and 14.5 µM (inactive) in the experiment with UACC-62.

For `CC1C(=O)C(C)C(c2cccs2)N(N=O)C1c1cccs1` (stereo not drawn), the GI50 in the experiment on COLO 205 is > 100 µM (inactive); in the experiment with HCT-116, > 100 µM (inactive); with HCT-15 it was over 100 µM; with HOP-62, > 100 µM (inactive); in the experiment with IGROV-1 it was > 100 µM (inactive); in the experiment on MCF7, > 100 µM (inactive). Further, the GI50 was > 100 µM (inactive) in the experiment on NCI-H23; > 100 µM (inactive) in the experiment with NCI-H460; 37.7 µM (inactive) with NCI-H522; > 100 µM (inactive) with OVCAR-4; > 100 µM (inactive) in the experiment with SF-295; > 100 µM (inactive) in the experiment on SN12C. In addition, the GI50 in the experiment on SNB-75 was 28.1 µM (inactive); in the experiment with U-251 it was > 100 µM (inactive); in the experiment with UACC-62 it was > 100 µM (inactive).

As to `COc1ccc(/C=C2\CCNC2=O)cc1`, the GI50 in the experiment with COLO 205 was > 100 µM (inactive); with HCT-116, > 100 µM (inactive); in the experiment on HCT-15, over 100 µM; in the experiment with HOP-62, 40.6 µM (inactive); in the experiment on IGROV-1 it was > 100 µM (inactive); in the experiment with MCF7, > 100 µM (inactive). Further, the GI50 in the experiment with NCI-H23, in the experiment with NCI-H460, with NCI-H522, in the experiment on OVCAR-4, in the experiment with SF-295 and in the experiment on SN12C was > 100 µM (inactive) in each case. The GI50 in the experiment with SNB-75 was > 47.1 µM (inactive); with U-251, > 100 µM (inactive); in the experiment with UACC-62, > 100 µM (inactive).

With `CC(NC(=O)C(C)NC(=O)C(N)CCP(C)(=O)O)C(=O)O` (stereo not drawn), the GI50 in the experiment with COLO 205 was > 100 µM (inactive); with HCT-116, > 100 µM (inactive); with HCT-15 it was over 100 µM; in the experiment on HOP-62, > 100 µM (inactive); in the experiment with IGROV-1 it was > 100 µM (inactive); in the experiment on MCF7, > 100 µM (inactive). Further, the GI50 in the experiment with NCI-H23, in the experiment with NCI-H460, in the experiment on NCI-H522, in the experiment on OVCAR-4, in the experiment with SF-295 and in the experiment with SN12C was > 100 µM (inactive) each time. For the same compound, the GI50 with SNB-75, in the experiment on U-251 and in the experiment on UACC-62 was > 100 µM (inactive) each time.

Take `CC(C)(C)[Si](C)(C)OCC1OC(n2cnc3c(NC(=O)c4ccccc4)ncnc32)CC1O` (stereo not drawn): the GI50 in the experiment on COLO 205 was 18.3 µM (inactive); with HCT-116 it was 29.7 µM (inactive); in the experiment with HCT-15 it was 51.1 µM; in the experiment with HOP-62 it was 19 µM (inactive); in the experiment on IGROV-1, 33.7 µM (inactive); with MCF7, 44.4 µM (inactive). The GI50 with MDA-MB-231 is 22.1 µM (inactive); in the experiment with NCI-H23 it was 48.9 µM (inactive); in the experiment on NCI-H460, 32.7 µM (inactive); in the experiment on NCI-H522 it was 14.4 µM (inactive); with OVCAR-4, 24 µM (inactive); in the experiment on PC-3, 37.5 µM (inactive). The GI50 with SF-295 was 24.4 µM (inactive); in the experiment on SN12C, 33.4 µM (inactive); in the experiment with SNB-75 it was 26.7 µM (inactive); in the experiment with TK-10, 58.7 µM (inactive); in the experiment with U-251 it was 20.5 µM (inactive); in the experiment with UACC-62 it was 18.7 µM (inactive).

Consider `Cc1nc2c(sc(=S)n2-c2ccccc2)c(=O)[nH]1`, for which the GI50 in the experiment with COLO 205, in the experiment on HCT-116, with HOP-62, in the experiment on IGROV-1, in the experiment with NCI-H23 and in the experiment on NCI-H460 was > 100 µM (inactive) each time. In addition, the GI50 with NCI-H522, with SF-295, with TK-10, in the experiment with U-251 and in the experiment on UACC-62 was > 100 µM (inactive) throughout.
